Reference: ChEMBL document CHEMBL1158279, “Isolation and structure of leukotriene-A4 hydrolase inhibitor: 8(S)-amino-2(R)-methyl-7-oxononanoic acid produced by Streptomyces diastaticus” (J Nat Prod, 1996)

Experiments:
[1] = biological target: T1, Angiotensin-converting enzyme (Oryctolagus cuniculus, UniProt P12822); assay: Inhibition of rabbit lung ACE
T1 sequence (P12822 whole entry): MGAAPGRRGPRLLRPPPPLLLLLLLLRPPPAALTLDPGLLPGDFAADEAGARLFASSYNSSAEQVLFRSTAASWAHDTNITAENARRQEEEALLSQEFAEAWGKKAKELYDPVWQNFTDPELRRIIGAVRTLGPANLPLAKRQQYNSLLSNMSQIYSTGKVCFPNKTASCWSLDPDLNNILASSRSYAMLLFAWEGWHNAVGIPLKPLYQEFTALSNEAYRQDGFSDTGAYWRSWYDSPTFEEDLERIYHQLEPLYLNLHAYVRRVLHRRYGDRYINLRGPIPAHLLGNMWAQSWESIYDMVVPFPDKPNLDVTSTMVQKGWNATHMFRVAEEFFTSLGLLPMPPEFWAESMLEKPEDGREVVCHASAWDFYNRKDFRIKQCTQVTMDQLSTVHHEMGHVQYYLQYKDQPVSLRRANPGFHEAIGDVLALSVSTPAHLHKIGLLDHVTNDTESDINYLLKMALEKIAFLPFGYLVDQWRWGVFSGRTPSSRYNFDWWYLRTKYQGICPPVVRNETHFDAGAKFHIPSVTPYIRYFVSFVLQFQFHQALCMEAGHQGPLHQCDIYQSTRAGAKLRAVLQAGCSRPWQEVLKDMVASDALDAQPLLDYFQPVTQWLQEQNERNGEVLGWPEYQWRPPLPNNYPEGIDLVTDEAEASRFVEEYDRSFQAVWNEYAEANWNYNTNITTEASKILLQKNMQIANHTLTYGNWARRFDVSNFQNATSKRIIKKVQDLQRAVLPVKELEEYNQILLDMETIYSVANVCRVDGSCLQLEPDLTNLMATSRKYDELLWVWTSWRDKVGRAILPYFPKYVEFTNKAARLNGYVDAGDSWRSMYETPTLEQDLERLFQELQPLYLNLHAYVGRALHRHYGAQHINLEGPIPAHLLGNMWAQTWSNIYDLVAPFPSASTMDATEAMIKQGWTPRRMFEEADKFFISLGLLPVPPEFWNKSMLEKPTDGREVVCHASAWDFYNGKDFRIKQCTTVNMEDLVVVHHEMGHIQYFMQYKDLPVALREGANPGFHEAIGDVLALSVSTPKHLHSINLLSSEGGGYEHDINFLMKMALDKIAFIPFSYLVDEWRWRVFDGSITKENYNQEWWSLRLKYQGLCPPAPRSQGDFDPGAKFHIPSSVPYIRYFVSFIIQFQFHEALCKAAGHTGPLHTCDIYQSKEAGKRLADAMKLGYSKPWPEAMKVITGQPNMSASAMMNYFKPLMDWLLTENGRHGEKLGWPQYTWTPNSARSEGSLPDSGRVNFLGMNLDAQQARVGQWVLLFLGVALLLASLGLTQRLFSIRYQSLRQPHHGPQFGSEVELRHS

[2] = biological target: T2, Leukotriene A-4 hydrolase (Homo sapiens, UniProt P09960); assay: Inhibition of human recombinant LTA4 hydrolase assessed as LTB4 production after 30 mins by ELISA
T2 sequence (P09960 whole entry): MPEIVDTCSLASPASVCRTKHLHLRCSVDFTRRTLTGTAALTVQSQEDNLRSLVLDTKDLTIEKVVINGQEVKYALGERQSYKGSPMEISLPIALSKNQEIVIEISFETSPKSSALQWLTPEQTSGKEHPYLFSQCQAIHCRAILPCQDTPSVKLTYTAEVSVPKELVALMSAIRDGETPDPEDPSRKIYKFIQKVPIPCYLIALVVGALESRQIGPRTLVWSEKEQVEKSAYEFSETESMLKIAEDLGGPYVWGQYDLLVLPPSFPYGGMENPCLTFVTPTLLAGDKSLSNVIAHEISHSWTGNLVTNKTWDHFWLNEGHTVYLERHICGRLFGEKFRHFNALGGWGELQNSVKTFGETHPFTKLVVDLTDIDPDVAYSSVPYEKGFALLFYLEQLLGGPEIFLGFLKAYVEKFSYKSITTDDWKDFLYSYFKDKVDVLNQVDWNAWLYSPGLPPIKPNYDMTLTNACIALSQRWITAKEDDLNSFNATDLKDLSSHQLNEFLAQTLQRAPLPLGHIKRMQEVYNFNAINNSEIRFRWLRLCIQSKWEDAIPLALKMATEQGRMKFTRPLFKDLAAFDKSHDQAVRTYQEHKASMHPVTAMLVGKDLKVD

[3] = system: Blood; assay: Inhibition of TxB2 production in human whole blood after 15 mins by ELISA; format: functional, tissue-based; conditions: 0.25 h
[4] = system: Blood; assay: Inhibition of LTB4 production in human whole blood after 15 mins by ELISA; format: functional, tissue-based; conditions: 0.25 h
[5] = biological target: T2, Leukotriene A-4 hydrolase; assay: Inhibition of human recombinant LTA4 aminopeptidase activity spectrophotometric analysis

With `C[C@H](N)C(=O)CCCC[C@@H](C)C(=O)O` the IC50 [1] was over 100 µM, the IC50 [2] was 0.57 µM and the IC50 [3] was over 30 µM. It also gave an IC50 [4] of 7 µM and an IC50 [5] of 0.3 µM.
